In patent US10555987B2, “GHRH agonists for the treatment of ischemic disorders” (UNIVERSITY OF MIAMI, priority 2012, dated 2020):
Entries after “also recorded” stand apart in the source; their conditions may differ. Non-standard residues stand in square brackets, D forms with d. Residues, ends and D or L forms follow the SMILES beside them. *: point of attachment. NMeY = CN[C@@H](Cc1ccc(O)cc1)C(=O)O; Agmatine = N=C(N)NCCCCN*; Nle = CCCC[C@H](N)C(=O)O; Orn = NCCC[C@H](N)C(=O)O; Abu = CC[C@H](N)C(=O)O

Assays:
GH release = test: In vivo endocrine activity, GH release after intravenous administration (Table 8); conditions: rat, i.v. injection
[1] = system: myocardial infarction (Fisher-344 rats); test: Echocardiography in rat myocardial infarction model, treatment from 4 weeks post-MI (Example 13); format: in vivo; conditions: mean ± SEM; for EF (4 Weeks): 50 μg/kg s.c. twice daily for 4 weeks; for EF (Baseline): ejection fraction at baseline
Procedure: Myocardial infarction (MI) was induced by permanent ligation of the left coronary artery in female 6-month-old Fisher-344 rats. Animals were randomly assigned to receive placebo (DMSO+propylene glycol) or one of the GHRH-agonists (JI-38, MR-356/P-20356, MR-409/P-27409, all 50 μg/kg), starting 4 weeks post-MI. All treatment was given subcutaneously twice daily for 4 weeks.
Echocardiographic measurements were obtained at baseline, 2 days, 1, 2 and 4 weeks. Echocardiographic assessments were performed in anesthetized rats (2% isoflurane inhalation) using a Vevo-770 echocardiogram (Visual Sonics Inc., Toronto, Ontario, Canada) equipped with a 17.5-MHz transducer. Cardiac dimensions: LV end diastolic (LVEDD), end systolic (LVESD) diameters and fractional shortening (FS) were recorded from M-mode images using averaged measurements from 3 to 5 consecutive cardiac cycles according to the American Society of Echocardiography. Ejection fraction (EF) was calculated from bi-dimensional long-axis parasternal views taken through the infarcted area. All images were analyzed using Vevo 770 3.0.0 software (Visual Sonics Inc., Toronto, Ontario, Canada).

[2] = system: nitrosoglutathione reductase-/- (GSNOR-/-) mesenchymal stem cells (MSCs); test: Tube formation of GSNOR-/- mesenchymal stem cells in Matrigel; format: cell-based, mouse; conditions: GSNOR-/- MSCs on Matrigel, 6 to 24 hours
Procedure: Bone marrow-derived MSCs isolated from wildtype and GSNOR^−/− mice were grown in endothelial growth media (EGM-2, Lonza Biotech) for a period of 1 week. Cells were harvested by brief trypsinization and plated in 24-well culture dishes (5×10^4 cells/well) pre-coated with 300 μl of Matrigel (BD Biosciences). Cells were incubated in endothelial basal media (Lonza Biotech) supplemented with 0.1% bovine serum albumin, in the presence or absence of GHRH agonist peptides P-20356 and P-27409. After 6 to 24 hours, tube formation potential was quantified in each sample by measuring the number and length of tubes formed using Image J Software (NIH).

[3] = system: myocardial infarction (Fischer 344 rats); test: Echocardiography in rat MI model, treatment from 2 hours post-surgery (Example 14); format: in vivo; conditions: echocardiographic measurements at day 2 post-MI
Procedure: (§1) MI was induced in female 6-month-old Fischer 344 rats by permanent ligation of left ventricular (LV) anterior descending coronary artery. Animals were randomly assigned to receive placebo or one of the following GHRH agonists (MR-356, MR-361, MR-367, MR-403, MR-404, MR-409 and MR-502) starting 2 hours post-surgery. All treatment (50 μg/kg) was given subcutaneously twice daily for 4 weeks. The Institutional Animal Care and Use committee of the University of Miami approved all protocols and experimental procedures.
Longitudinal evaluation of LV remodeling was obtained by echocardiographic measurements between baseline and 4 weeks following MI. Echocardiographic assessments were performed in anesthetized rats (1-2% isoflurane inhalation) using a Vevo-770 echocardiogram (Visual Sonics Inc., Toronto, Ontario, Canada) equipped with 25 MHz transducer. Cardiac dimensions were recorded from M-mode images using averaged measurements from 3 to 5 consecutive cardiac cycles. LV end-diastolic and end-systolic volumes and ejection fraction (EF) were calculated from bi-dimensional long-axis parasternal views taken through the infarcted area. All images were analyzed using Vevo 770 3.0.0 software (Visual Sonics).

[4] = system: superfused rat pituitary cells; test: GH release in superfused rat pituitary cell system (Table 4); format: cell-based; conditions: 1 nM; for GH Response (ng/ml), column 1: replicate 1; for GH Response (ng/ml), column 2: replicate 2; for GH Response (ng/ml), column 3: replicate 3
Procedure: Growth hormone releasing activity. Growth hormone releasing was assayed by using a superfused rat pituitary cell system as described in S. Vigh and A. V. Schally, Peptides 5, Suppl: 241-347, 1984. The new synthetic peptide analog of hGHRH P20356 and JI-38 (as control) were administered for 3 minutes (1 mL perfusate) at 1 nM concentration as shown below. Fractions of 1 ml are collected and the GH content in each was determined by ELISA.
Pituitary cells from 2 male rats were used for each channel of the superfusion system. The cells were exposed to 3-min pulses of the new GHRH agonists or to JI-38 as standard every 30 min. Outflowing samples of each channel (1 ml) were collected every 3 min, and GH levels were determined by ELISA.

[5] = system: myocardial infarction (Fischer 344 rats); test: Morphometric analysis, percentage of infarcted myocardium (Example 14); format: in vivo, rat; conditions: vs. placebo, FIG. 8
Procedure: as §1
Slides were prepared with H&E and Masson's trichrome stain to assess cardiac structure and the presence and extent of myocardial scar, respectively. The percentage of infarcted myocardium was calculated.

[6] = fraction 1 (P-20356)/21 (JI-38)
[7] = fraction 2 (P-20356)/22 (JI-38)
[8] = fraction 3 (P-20356)/23 (JI-38)
[9] = fraction 4 (P-20356)/24 (JI-38)
[10] = fraction 5 (P-20356)/25 (JI-38)

CCCC[C@H](NC(=O)[C@@H](NC(=O)[C@H](CC(=O)O)NC(=O)[C@H](CCC(N)=O)NC(=O)[C@H](CC(C)C)NC(=O)[C@H](CC(C)C)NC(=O)[C@H](CCCN)NC(=O)[C@H](CCCNC(=N)N)NC(=O)[C@H](C)NC(=O)[C@H](CO)NC(=O)[C@H](CC(C)C)NC(=O)[C@H](CCC(N)=O)NC(=O)[C@H](CC)NC(=O)[C@H](CC(C)C)NC(=O)[C@@H](NC(=O)[C@H](CCCN)NC(=O)[C@H](CCCNC(=N)N)NC(=O)[C@H](Cc1ccc(O)cc1)NC(=O)[C@H](CO)NC(=O)[C@H](CCC(N)=O)NC(=O)[C@@H](NC(=O)[C@H](Cc1ccccc1)NC(=O)[C@@H](NC(=O)[C@H](C)NC(=O)[C@H](CC(=O)O)NC(=O)[C@H](C)NC(=O)[C@H](Cc1ccc(O)cc1)NC)[C@@H](C)CC)[C@@H](C)O)C(C)C)[C@@H](C)CC)C(=O)N[C@@H](CC(=O)O)C(=O)NCCCCNC(=N)N [Peptide P-20356, [N—Me-Tyr^1, Gln^8, Orn^12, Abu^15, Orn^21, Nle^27, Asp^28, Agm^29]hGHRH(1-29) NH2] (H-[NMeY]ADAIFTQSYR[Orn]VL[Abu]QLSAR[Orn]LLQDI[Nle]D-Agmatine)
GH releasing potency in vivo relative to JI-38 (=1) (GH release; 5 min after): 1.07 | GH releasing potency in vivo relative to JI-38 (=1) (GH release; 15 min after): 0.91 | GH releasing potency in vivo relative to JI-38 (=1) (GH release; 30 min after): 1.22 | EF (4 Weeks) [1]: 51 ± 2.7 % | EF (Baseline) [1]: 88 ± 0.6% | Tube formation [2]: formed tube-like structures similar to wildtype MSCs | EF at day 2 post-MI [3]: slightly better preserved | GH-releasing potency in vitro, times more potent than JI-38 ([4]; superfused rat pituitary cells): about 3 | GH Response (ng/ml), Average [4, 6]: 52.45 ng/mL | GH Response (ng/ml), column 1 [4, 6]: 49.98 ng/mL | GH Response (ng/ml), column 2 [4, 6]: 54.99 ng/mL | GH Response (ng/ml), column 3 [4, 6]: 52.37 ng/mL | GH Response (ng/ml), Average [4, 7]: 337.48 ng/mL | GH Response (ng/ml), column 1 [4, 7]: 310.58 ng/mL | GH Response (ng/ml), column 2 [4, 7]: 325.76 ng/mL | GH Response (ng/ml), column 3 [4, 7]: 376.11 ng/mL | GH Response (ng/ml), Average [4, 8]: 556.46 ng/mL | GH Response (ng/ml), column 1 [4, 8]: 491.01 ng/mL | GH Response (ng/ml), column 2 [4, 8]: 602.1 ng/mL | GH Response (ng/ml), column 3 [4, 8]: 576.26 ng/mL | GH Response (ng/ml), Average [4, 9]: 334.99 ng/mL | GH Response (ng/ml), column 1 [4, 9]: 399.95 ng/mL | GH Response (ng/ml), column 2 [4, 9]: 270.02 ng/mL | GH Response (ng/ml), Average [4, 10]: 197.91 ng/mL | GH Response (ng/ml), column 1 [4, 10]: 200.64 ng/mL | GH Response (ng/ml), column 2 [4, 10]: 195.18 ng/mL | infarct size (MI %) ([5]; listed as MR-356): significantly attenuated; also recorded: substantial reductions

CCCC[C@H](NC(=O)[C@@H](NC(=O)[C@H](CC(=O)O)NC(=O)[C@H](CCC(N)=O)NC(=O)[C@H](CC(C)C)NC(=O)[C@H](CC(C)C)NC(=O)[C@H](CCCN)NC(=O)[C@H](CCCNC(=N)N)NC(=O)[C@H](C)NC(=O)[C@H](CO)NC(=O)[C@H](CC(C)C)NC(=O)[C@H](CCC(N)=O)NC(=O)[C@H](CC)NC(=O)[C@H](CC(C)C)NC(=O)[C@@H](NC(=O)[C@H](CCCN)NC(=O)[C@H](CCCNC(=N)N)NC(=O)[C@H](Cc1ccc(O)cc1)NC(=O)[C@H](CO)NC(=O)[C@H](CC(N)=O)NC(=O)[C@@H](NC(=O)[C@H](Cc1ccccc1)NC(=O)[C@@H](NC(=O)[C@H](C)NC(=O)[C@H](CC(=O)O)NC(=O)[C@@H](C)NC(=O)[C@H](Cc1ccc(O)cc1)NC)[C@@H](C)CC)[C@@H](C)O)C(C)C)[C@@H](C)CC)C(=O)N[C@@H](CC(=O)O)C(=O)N[C@@H](CCCNC(=N)N)C(=O)NC [Peptide P-27409, [N—Me-Tyr^1, D-Ala^2, Orn^12, Abu^15, Orn^21, Nle^27, Asp^28]hGHRH(1-29)NH—CH3] (H-[NMeY][dA]DAIFTNSYR[Orn]VL[Abu]QLSAR[Orn]LLQDI[Nle]DR-NHMe)
EF (4 Weeks) [1]: 48 ± 2.8 % | EF (Baseline) [1]: 90 ± 0.8% | Tube formation [2]: formed tube-like structures similar to wildtype MSCs | infarct size (MI %) ([5]; listed as MR-409): significantly attenuated; also recorded: substantial reductions
